Results from PubChem BioAssay (NCI).
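In this assay, cells in 96-well plates receive the compound at five concentrations for 48 hours. Endpoints are linearly interpolated between the surrounding concentrations. TGI: concentration producing complete growth inhibition.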

Experiments:
Assay in all cases: growth of human tumour cells (NCI), 48 h
HCT-15 colon = system: HCT-15 colon
HOP-62 NSCLC = system: HOP-62 NSCLC
LOX IMVI melanoma = system: LOX IMVI melanoma
NCI-H226 lung = system: NCI-H226 lung
OVCAR-4 ovarian = system: OVCAR-4 ovarian
SN12C renal = system: SN12C renal
SW-620 colon = system: SW-620 colon
T-47D breast = system: T-47D breast
RXF 393 renal = system: RXF 393 renal
MALME-3M melanoma = system: MALME-3M melanoma

Compound	TGI (HCT-15 colon) [µM]	TGI (HOP-62 NSCLC) [µM]	TGI (LOX IMVI melanoma) [µM]	TGI (NCI-H226 lung) [µM]	TGI (OVCAR-4 ovarian) [µM]	TGI (SN12C renal) [µM]	TGI (SW-620 colon) [µM]	TGI (T-47D breast) [µM]	TGI (RXF 393 renal) [µM]	TGI (MALME-3M melanoma) [µM]
CC1=C2c3c(C)ccc4ccc(C)c(c34)C2(O)C(C)C1=O (stereo not given)	> 100	> 100	> 100	> 100	> 100	> 100	> 100	> 100	–	–
N#CCCN(CCC#N)c1ccc(C(N=Nc2ccccc2)=Nc2ccccc2)cc1	> 100	> 100	–	> 100	> 100	> 100	> 100	> 100	> 100	–
Cc1cn(C2CCC(/C=N\O)O2)c(=O)[nH]c1=O (stereo not given)	> 100	> 100	> 100	> 100	> 100	> 100	> 100	> 100	> 100	–
O=[N+]([O-])c1ccc(C2=NOC(c3ccccc3F)N2C23CC4CC(CC(C4)C2)C3)cc1 (stereo not given)	> 100	> 100	> 100	> 100	> 100	> 100	> 100	> 100	–	> 100
CC1(C)C(=O)C(C)(C)C12SSC1(S2)C(C)(C)C(=O)C1(C)C	> 100	> 100	> 100	> 100	> 100	> 100	> 100	> 100	–	> 100
O=C(CC(=O)N1N=C(N2CCCCC2)CC1c1ccccc1)Nc1ccc(Cl)cc1 (stereo not given)	> 100	> 100	> 100	> 100	> 100	> 100	> 100	> 100	–	> 100
CC1(C)CC(=O)C2=C(C1)c1c(ccc3ccccc13)NC2c1cn(Cc2ccc(Cl)cc2)c2ccccc12 (stereo not given)	> 100	> 100	> 100	–	> 100	> 100	> 100	> 100	–	–
OC12COc3ccccc3C1Oc1ccccc1C2 (stereo not given)	> 100	> 100	> 100	> 100	> 100	> 100	> 100	> 100	–	> 100
O=c1cc(N2CCOCC2)[nH]c(=O)n1-c1cccc(C(F)(F)F)c1	> 100	> 100	> 100	> 100	> 100	> 100	> 100	> 100	–	> 100
CC1(C23CC4CC(CC(C4)C2)C3)n2c(=O)n(-c3ccccc3)c(=O)n2C1(C)C12CC3CC(CC(C3)C1)C2 (stereo not given)	> 100	> 100	–	> 100	–	> 100	> 100	> 100	–	–
Cc1cc(C)nc(NS(=O)(=O)c2ccc(Nc3c4ccccc4nc4c(C(=O)NCCCN(CCO)CCO)cccc34)cc2)n1	> 100	73.5	46.1	–	> 100	> 100	33.6	> 100	–	33.6
C[C@H](Nc1c(O)c2c(c(O)c1Cl)C(=O)C=CC2=O)C(=O)Nc1ccc([N+](=O)[O-])cc1	7.55	6.74	–	6.84	3.14	2.99	6.49	> 10	3.04	2.41
Cc1cccc2c1Oc1cc(Cl)ccc1C2NC(=O)CCN1CCN(CCO)CC1 (stereo not given)	34.1	32.9	9.7	–	31	28.7	32.2	34.2	–	–
CCCc1c(OC)c(=O)c2c(OC)cc(OC)c3c4c(OC)cc(OC)c5c(=O)c(OC)c(CCC)c(c1c23)c54	27.9	33	23.1	38.9	28.4	50.4	33.7	20.6	69.1	–
O=C(/C=C/c1ccc(Cl)cc1)Oc1ccc(/C=C2\CCCCC2=O)cc1	> 100	> 100	> 100	–	> 100	> 100	> 100	> 100	–	> 100
O=C1C(/C=C/c2ccc(Cl)cc2)=NNC2N1N=C1NC(=O)C3(NN12)c1ccccc1-c1ccccc13 (stereo not given)	> 100	> 100	> 100	> 100	> 100	> 100	> 100	–	> 100	> 100
COC(=O)C(CCCC1(c2ccccc2)OCCO1)C(C)=O (stereo not given)	> 100	> 100	> 100	> 100	> 100	> 100	> 100	–	> 100	> 100
CC1(C2(C)OC(=O)c3ccccc32)OC(=O)c2ccccc21 (stereo not given)	> 100	> 100	> 100	> 100	> 100	> 100	> 100	> 100	> 100	–
Clc1ccc(Oc2ccc(N=Cc3ccc(Cl)cc3Cl)cc2Cl)cc1	> 100	> 100	> 100	> 100	> 100	> 100	> 100	> 100	–	87.4
